In ChEMBL document CHEMBL1201862, “PubChem BioAssay data set” (2004):
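These data come from cells grown in 96-well plates and exposed to compound for 48 hours at five concentrations. Abbreviation: GI50, concentration required for 50% inhibition of growth.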 The source made the active and inactive calls. Cut-off read from the data, not from the text of the source: active = GI50 up to about 1.1 µM and inactive = higher.

Assays:
Experiment in all cases: NCI-60 cell line screen, 48 h
EKVX = system: EKVX
NCI-H23 = system: NCI-H23
HOP-62 = system: HOP-62
KM12 = system: KM12
MDA-MB-435 = system: MDA-MB-435
RXF 393 = system: RXF 393
SR = system: SR
UACC-62 = system: UACC-62
NCI-H522 = system: NCI-H522
HOP-92 = system: HOP-92
CAKI-1 = system: CAKI-1
MDA-MB-231 = system: MDA-MB-231
MCF7 = system: MCF7
OVCAR-4 = system: OVCAR-4
MOLT-4 = system: MOLT-4
Hs-578T = system: Hs-578T
OVCAR-5 = system: OVCAR-5
SF-539 = system: SF-539
NCI/ADR-RES = system: NCI/ADR-RES
SK-OV-3 = system: SK-OV-3
HCC 2998 = system: HCC 2998
HCT-15 = system: HCT-15
DU-145 = system: DU-145
LOX IMVI = system: LOX IMVI
K562 = system: K562
Malme-3M = system: Malme-3M
IGROV-1 = system: IGROV-1
CCRF-CEM = system: CCRF-CEM
HT-29 = system: HT-29
786-0 = system: 786-0
SN12C = system: SN12C
PC-3 = system: PC-3
HCT-116 = system: HCT-116
SNB-75 = system: SNB-75
NCI-H226 = system: NCI-H226
ACHN = system: ACHN
BT-549 = system: BT-549
MDA-N = system: MDA-N
SK-MEL-2 = system: SK-MEL-2
T47D = system: T47D
SNB-19 = system: SNB-19
UO-31 = system: UO-31
M14 = system: M14
A498 = system: A498
SF-295 = system: SF-295
NCI-H460 = system: NCI-H460
SW-620 = system: SW-620
SK-MEL-5 = system: SK-MEL-5
RPMI-8226 = system: RPMI-8226
A549 = system: A549
U-251 = system: U-251
HL-60 = system: HL-60
OVCAR-3 = system: OVCAR-3
OVCAR-8 = system: OVCAR-8
SK-MEL-28 = system: SK-MEL-28
TK-10 = system: TK-10
SF-268 = system: SF-268
COLO 205 = system: COLO 205
UACC-257 = system: UACC-257

CCN(CC)C1Oc2cc3c(cc2C(c2cc(OC)c(OC)c(OC)c2)C1C)OCO3 (stereo not drawn)
GI50 (EKVX): 10400 nM (inactive) | GI50 (NCI-H23): 1530 nM (inactive) | GI50 (HOP-62): 471 nM (active) | GI50 (KM12): 530 nM (active) | GI50 (MDA-MB-435): 113 nM (active) | GI50 (RXF 393): 839 nM (active) | GI50 (SR): 256 nM (active) | GI50 (UACC-62): 1060 nM (active) | GI50 (NCI-H522): 344 nM (active) | GI50 (HOP-92): 676 nM (active) | GI50 (CAKI-1): 1850 nM (inactive) | GI50 (MDA-MB-231): 3150 nM (inactive) | GI50 (MCF7): 435 nM (active) | GI50 (OVCAR-4): 16100 nM (inactive) | GI50 (MOLT-4): 871 nM (active) | GI50 (Hs-578T): 759 nM (active) | GI50 (OVCAR-5): 2000 nM (inactive) | GI50 (SF-539): 457 nM (active) | GI50 (NCI/ADR-RES): 219 nM (active) | GI50 (SK-OV-3): 1100 nM (active) | GI50 (HCC 2998): 809 nM (active) | GI50 (HCT-15): 518 nM | GI50 (DU-145): 1770 nM (inactive) | GI50 (LOX IMVI): 762 nM (active) | GI50 (K562): 308 nM (active) | GI50 (Malme-3M): 748 nM (active) | GI50 (IGROV-1): 1520 nM (inactive) | GI50 (CCRF-CEM): 406 nM (active) | GI50 (HT-29): 603 nM (active) | GI50 (786-0): 1330 nM (inactive) | GI50 (SN12C): 1520 nM (inactive) | GI50 (PC-3): 979 nM (active) | GI50 (HCT-116): 465 nM (active) | GI50 (SNB-75): 4250 nM (inactive) | GI50 (NCI-H226): 875 nM (active) | GI50 (ACHN): 2140 nM (inactive) | GI50 (BT-549): 7100 nM (inactive) | GI50 (MDA-N): 83.6 nM (active) | GI50 (SK-MEL-2): 887 nM (active) | GI50 (T47D): 9350 nM (inactive) | GI50 (SNB-19): 1290 nM (inactive) | GI50 (UO-31): 2560 nM (inactive) | GI50 (M14): 640 nM (active) | GI50 (A498): 1590 nM (inactive) | GI50 (SF-295): 441 nM (active) | GI50 (NCI-H460): 944 nM (active) | GI50 (SW-620): 531 nM (active) | GI50 (SK-MEL-5): 408 nM (active) | GI50 (RPMI-8226): 927 nM (active) | GI50 (A549): 1550 nM (inactive) | GI50 (U-251): 600 nM (active) | GI50 (HL-60): 242 nM (active) | GI50 (OVCAR-3): 387 nM (active) | GI50 (OVCAR-8): 1390 nM (inactive) | GI50 (SK-MEL-28): 719 nM (active) | GI50 (TK-10): 26500 nM (inactive) | GI50 (SF-268): 3610 nM (inactive) | GI50 (COLO 205): 875 nM (active) | GI50 (UACC-257): 2880 nM (inactive)

C/C(=N/NC(=S)N1CCCCCC1)c1ccccc1O
GI50 (EKVX): 14900 nM (inactive) | GI50 (NCI-H23): 14000 nM (inactive) | GI50 (HOP-62): 1990 nM (inactive) | GI50 (KM12): 3670 nM (inactive) | GI50 (MDA-MB-435): 5820 nM (inactive) | GI50 (RXF 393): 51500 nM (inactive) | GI50 (SR): 492 nM (active) | GI50 (UACC-62): 3050 nM (inactive) | GI50 (NCI-H522): 1490 nM (inactive) | GI50 (HOP-92): 50200 nM (inactive) | GI50 (CAKI-1): 8050 nM (inactive) | GI50 (MDA-MB-231): 29900 nM (inactive) | GI50 (MCF7): 3310 nM (inactive) | GI50 (OVCAR-4): 6980 nM (inactive) | GI50 (MOLT-4): 2260 nM (inactive) | GI50 (Hs-578T): > 100000 nM (inactive) | GI50 (OVCAR-5): 12700 nM (inactive) | GI50 (SF-539): 3860 nM (inactive) | GI50 (NCI/ADR-RES): 1690 nM (inactive) | GI50 (SK-OV-3): 12700 nM (inactive) | GI50 (HCC 2998): 7400 nM (inactive) | GI50 (HCT-15): 1260 nM | GI50 (DU-145): 4720 nM (inactive) | GI50 (LOX IMVI): 2070 nM (inactive) | GI50 (K562): 3310 nM (inactive) | GI50 (Malme-3M): 2590 nM (inactive) | GI50 (IGROV-1): 3720 nM (inactive) | GI50 (CCRF-CEM): 792 nM (active) | GI50 (HT-29): 7730 nM (inactive) | GI50 (786-0): 1890 nM (inactive) | GI50 (SN12C): 4630 nM (inactive) | GI50 (PC-3): 6700 nM (inactive) | GI50 (HCT-116): 3110 nM (inactive) | GI50 (SNB-75): 16400 nM (inactive) | GI50 (NCI-H226): > 22000 nM (inactive) | GI50 (ACHN): 2650 nM (inactive) | GI50 (BT-549): 8970 nM (inactive) | GI50 (MDA-N): 13600 nM (inactive) | GI50 (SK-MEL-2): 3290 nM (inactive) | GI50 (T47D): 7600 nM (inactive) | GI50 (SNB-19): 42200 nM (inactive) | GI50 (UO-31): 2620 nM (inactive) | GI50 (M14): 1490 nM (inactive) | GI50 (A498): 23800 nM (inactive) | GI50 (SF-295): 4800 nM (inactive) | GI50 (NCI-H460): 650 nM (active) | GI50 (SW-620): 4970 nM (inactive) | GI50 (SK-MEL-5): 4050 nM (inactive) | GI50 (RPMI-8226): 2480 nM (inactive) | GI50 (A549): 6050 nM (inactive) | GI50 (U-251): 1870 nM (inactive) | GI50 (HL-60): 2250 nM (inactive) | GI50 (OVCAR-3): 1380 nM (inactive) | GI50 (OVCAR-8): 2810 nM (inactive) | GI50 (SK-MEL-28): 8360 nM (inactive) | GI50 (TK-10): 3580 nM (inactive) | GI50 (SF-268): 3030 nM (inactive) | GI50 (COLO 205): 7980 nM (inactive) | GI50 (UACC-257): 4600 nM (inactive)
